The conditions of data set [1]: commercially available dyes to be tested; cited from earlier work.

Each structure is given as a SMILES string.

For the compound `Nc1ccncc1` [4-AP, 4-am inopyridine], in the data set with mouse brains (mouse, in vivo), the “PA waveforms (DPA-stained cortex) after 4-AP” value is “large-amplitude high-frequency waveforms consistent with epileptiform discharges” and the “behavioural effect in mice” value was “signs of convulsions”. In the case of `CCN(CC)c1ccc2cc(/C=C/c3cc[n+](CC[N+](C)(C)C)cc3)ccc2c1.[Br-].[Br-]` [Di-2-ANEPEQ], the “Abs.: peak absorption wavelength” value in data set [1] is given as 517 nm.

With `CCCCCCCCCCCCN(CCCCCCCCCCCC)c1ccc2cc(/C=C/c3cc[n+](CCC[N+](C)(C)C)cc3)ccc2c1.[Br-].[Br-]` [Di-12-ANEPPQ], the “Abs.: peak absorption wavelength” value in data set [1] is on record as 519 nm. For the compound `CCCCN1C(=O)/C(=C/C=C/C=C2/C=CN(CCCCS(=O)(=O)[O-])c3ccccc32)SC1=S.[Na+]` [NK 2761], the “Abs.: peak absorption wavelength” value in data set [1] was 716 nm. Regarding `CCCCN(CCCC)c1ccc(/C=C/C=C/c2cc[n+](CCCCS(=O)(=O)[O-])cc2)cc1` [RH 160], the “Abs.: peak absorption wavelength” value in data set [1] is recorded as 530 nm. As for `CCCCN(CCCC)c1ccc(/C=C/C=C/C=C/c2cc[n+](CCCCS(=O)(=O)[O-])cc2)cc1` [RH 237], in data set [1], the “Abs.: peak absorption wavelength” value is recorded as 528 nm.

Turning to `CCN(CC)c1ccc(/C=C/C=C/c2cc[n+](CCC[N+](CC)(CC)CC)cc2)cc1.[Br-].[Br-]` [RH 414], the “Abs.: peak absorption wavelength” value in data set [1] was 532 nm. Regarding `CCN(CC)c1ccc(/C=C/C=C/c2cc[n+](CC(O)C[N+](C)(C)CCO)cc2)cc1.[Br-].[Br-]` (stereo not shown) [RH 795], in data set [1], the “Abs.: peak absorption wavelength” value is 530 nm. For `FC(F)OC(Cl)C(F)(F)F` (stereo not shown) [isoflurane], the “PA signal (DPA-stained cortex) after prolonged isoflurane” value in the data set with mouse brains (5% isoflurane, prolonged exposure (30 minutes), after 4-AP) is recorded as “suppression of photoacoustic signal change”.

The values above are taken from patent publication US10405750B2, “Nonradiative voltage-sensitive dye for imaging neuronal action potential” (Washington University, priority 2014, dated 2019).
